This passage reports speed of sound results from a compilation of properties of binary mixtures (doi:10.1016/j.molliq.2021.118292).

This data set can be described thus: xn = mol fraction of the nth substance listed. The conditions noted are these: 298.15 K, 101 kPa.

The term speed of sound denotes the propagation velocity of pressure waves in the medium. `CC(C)=O` + CC[n+]1ccn(C)c1.N#C[S-] came in with a speed of sound (x1 = 1) of 1166 m/s.

For `CC[n+]1ccn(C)c1.N#C[S-]` + CC(C)=O, the speed of sound (x2 = 0) was 1851 m/s; the speed of sound (x2 = 0.1125) came out at 1824 m/s; the speed of sound (x2 = 0.1889) worked out at 1798 m/s; the speed of sound (x2 = 0.3058) was 1758 m/s; the speed of sound (x2 = 0.3917) is 1720 m/s; the speed of sound (x2 = 0.5127) came to 1652 m/s. Also, the speed of sound (x2 = 0.6) came to 1590 m/s, the speed of sound (x2 = 0.6892) was found to be 1513 m/s, the speed of sound (x2 = 0.7842) was determined as 1417 m/s and the speed of sound (x2 = 0.9008) worked out at 1286 m/s.

As to `O` + CC(=O)[O-].CC[n+]1ccn(C)c1, where the note is “x1 = 1”, the speed of sound was 1495 m/s.

Turning to `CC(=O)[O-].CC[n+]1ccn(C)c1` + O, the speed of sound by setting is: (x2 = 0) 1735 m/s; (x2 = 0.1306) 1754 m/s; (x2 = 0.2326) 1763 m/s; (x2 = 0.2865) 1781 m/s; (x2 = 0.3671) 1795 m/s; (x2 = 0.4047) 1803 m/s. This compound also registered a speed of sound (x2 = 0.4896) of 1811 m/s; a speed of sound (x2 = 0.5258) of 1838 m/s; a speed of sound (x2 = 0.5507) of 1841 m/s; a speed of sound (x2 = 0.7151) of 1910 m/s; a speed of sound (x2 = 0.7317) of 1922 m/s; a speed of sound (x2 = 0.8099) of 1952 m/s. Under “x2 = 0.9053”, this compound gave a speed of sound of 1915 m/s.

Under “x1 = 1”, `CC(C)=O` + CC(=O)[O-].CCCC[n+]1ccn(C)c1 showed a speed of sound of 1163 m/s.

For `CC(=O)[O-].CCCC[n+]1ccn(C)c1` + CC(C)=O, the speed of sound was 1650 m/s (x2 = 0); 1600 m/s (x2 = 0.2024); 1566 m/s (x2 = 0.3155); 1497 m/s (x2 = 0.49); 1445 m/s (x2 = 0.5915); 1384 m/s (x2 = 0.689). Besides, the speed of sound by setting is: (x2 = 0.8036) 1301 m/s; (x2 = 0.8357) 1276 m/s.
